# Data: PubChem BioAssay AID1259407 (Chemical Carcinogenesis Research Information System (CCRIS), 2018)
# Active and inactive are the calls of the source. How the calls were made is not given here.
# Test system: CCRIS mutagenicity, Ames/micronucleus/aberration tests
# Experiment: CCRIS mutagenicity studies
compound,measurement,setting,value
CCOP(=S)(OCC)Oc1cc(C)nc(C(C)C)n1,mutagenic call,"Test System: AMES SALMONELLA TYPHIMURIUM, Strain/Indicator: TA97, Metabolic Activation: HAMSTER, LIVER, S-9, AROCLOR 1254 (10 OR 30%), Method: PREINCUBATION",inactive; negative
same,mutagenic call,"Test System: AMES SALMONELLA TYPHIMURIUM, Strain/Indicator: TA97, Metabolic Activation: NONE, Method: PREINCUBATION",inactive; negative
same,mutagenic call,"Test System: AMES SALMONELLA TYPHIMURIUM, Strain/Indicator: TA97, Metabolic Activation: RAT, LIVER, S-9, AROCLOR 1254 (10 OR 30%), Method: PREINCUBATION",inactive; negative
same,mutagenic call,"Test System: AMES SALMONELLA TYPHIMURIUM, Strain/Indicator: TA98, Metabolic Activation: HAMSTER, LIVER, S-9, AROCLOR 1254 (10 OR 30%), Method: PREINCUBATION",inactive; negative
same,mutagenic call,"Test System: AMES SALMONELLA TYPHIMURIUM, Strain/Indicator: TA98, Metabolic Activation: NONE, Method: PREINCUBATION",inactive; negative
same,mutagenic call,"Test System: AMES SALMONELLA TYPHIMURIUM, Strain/Indicator: TA98, Metabolic Activation: NONE, Method: STANDARD PLATE",inactive; negative
same,mutagenic call,"Test System: AMES SALMONELLA TYPHIMURIUM, Strain/Indicator: TA98, Metabolic Activation: RAT, LIVER, S-9, AROCLOR 1254 (10 OR 30%), Method: PREINCUBATION",inactive; negative
same,mutagenic call,"Test System: AMES SALMONELLA TYPHIMURIUM, Strain/Indicator: TA98, Metabolic Activation: S-9, NADPH GENERATING SYSTEM, Method: STANDARD PLATE",inactive; negative
same,mutagenic call,"Test System: AMES SALMONELLA TYPHIMURIUM, Strain/Indicator: TA100, Metabolic Activation: HAMSTER, LIVER, S-9, AROCLOR 1254 (10 OR 30%), Method: PREINCUBATION",inactive; negative
same,mutagenic call,"Test System: AMES SALMONELLA TYPHIMURIUM, Strain/Indicator: TA100, Metabolic Activation: NONE, Method: PREINCUBATION",inactive; negative
same,mutagenic call,"Test System: AMES SALMONELLA TYPHIMURIUM, Strain/Indicator: TA100, Metabolic Activation: RAT, LIVER, S-9, AROCLOR 1254 (10 OR 30%), Method: PREINCUBATION",inactive; negative
same,mutagenic call,"Test System: AMES SALMONELLA TYPHIMURIUM, Strain/Indicator: TA102, Metabolic Activation: NONE, Method: STANDARD PLATE",inactive; negative
same,mutagenic call,"Test System: AMES SALMONELLA TYPHIMURIUM, Strain/Indicator: TA102, Metabolic Activation: S-9, NADPH GENERATING SYSTEM, Method: STANDARD PLATE",inactive; negative
same,mutagenic call,"Test System: AMES SALMONELLA TYPHIMURIUM, Strain/Indicator: TA1535, Metabolic Activation: HAMSTER, LIVER, S-9, AROCLOR 1254 (10 OR 30%), Method: PREINCUBATION",inactive; negative
same,mutagenic call,"Test System: AMES SALMONELLA TYPHIMURIUM, Strain/Indicator: TA1535, Metabolic Activation: NONE, Method: PREINCUBATION",inactive; negative
same,mutagenic call,"Test System: AMES SALMONELLA TYPHIMURIUM, Strain/Indicator: TA1535, Metabolic Activation: NONE, Method: STANDARD PLATE",inactive; negative
same,mutagenic call,"Test System: AMES SALMONELLA TYPHIMURIUM, Strain/Indicator: TA1535, Metabolic Activation: RAT, LIVER, S-9, AROCLOR 1254 (10 OR 30%), Method: PREINCUBATION",inactive; negative
same,mutagenic call,"Test System: AMES SALMONELLA TYPHIMURIUM, Strain/Indicator: TA1535, Metabolic Activation: S-9, NADPH GENERATING SYSTEM, Method: STANDARD PLATE",inactive; negative
same,mutagenic call,"Test System: AMES SALMONELLA TYPHIMURIUM, Strain/Indicator: TA1537, Metabolic Activation: NONE, Method: STANDARD PLATE",inactive; negative
same,mutagenic call,"Test System: AMES SALMONELLA TYPHIMURIUM, Strain/Indicator: TA1537, Metabolic Activation: S-9, NADPH GENERATING SYSTEM, Method: STANDARD PLATE",inactive; negative
same,mutagenic call,"Test System: E. COLI, Strain/Indicator: WP2 UVRA, Metabolic Activation: HAMSTER, LIVER, S-9, AROCLOR 1254, Method: STANDARD PLATE",inactive; negative
same,mutagenic call,"Test System: E. COLI, Strain/Indicator: WP2 UVRA, Metabolic Activation: HAMSTER, LIVER, S-9, Method: STANDARD PLATE",inactive; negative
same,mutagenic call,"Test System: E. COLI, Strain/Indicator: WP2 UVRA, Metabolic Activation: MOUSE, LIVER, S-9, AROCLOR 1254, Method: STANDARD PLATE",inactive; negative
same,mutagenic call,"Test System: E. COLI, Strain/Indicator: WP2 UVRA, Metabolic Activation: MOUSE, LIVER, S-9, Method: STANDARD PLATE",inactive; negative
same,mutagenic call,"Test System: E. COLI, Strain/Indicator: WP2 UVRA, Metabolic Activation: NONE, Method: STANDARD PLATE",inactive; negative
same,mutagenic call,"Test System: E. COLI, Strain/Indicator: WP2 UVRA, Metabolic Activation: RAT, LIVER, S-9, AROCLOR 1254, Method: STANDARD PLATE",inactive; negative
same,mutagenic call,"Test System: E. COLI, Strain/Indicator: WP2 UVRA, Metabolic Activation: RAT, LIVER, S-9, Method: STANDARD PLATE",inactive; negative
Fc1cc2cccnc2c2ccccc12,mutagenic call,"Test System: AMES SALMONELLA TYPHIMURIUM, Strain/Indicator: TA100, Metabolic Activation: RAT, LIVER, S-9, PHENOBARBITAL AND 5,6-BENZOFLAVONE, Method: PREINCUBATION",active; positive
